Some results are limits rather than exact numbers.

This assay relates to Plasmodium falciparum. Description: Antimalarial activity against chloroquine-resistant Plasmodium falciparum W2 after 48 hrs by flow cytometry. The conditions noted are these: W2, 48 h. It counts as functional, organism-based.
For `O=C1C(=O)N(CCCCn2cc(COc3ccc(/C=N/Nc4ccnc5cc(Cl)ccc45)cc3)nn2)c2ccccc21`, the IC50 – broadly, the concentration at which inhibition is half-maximal – was 119 nM.

`O=Cc1ccc(OCc2cn(CCCN3C(=O)C(=O)c4cc(Cl)ccc43)nn2)cc1` showed an IC50 of over 10000 nM.

Compound `O=C1C(=O)N(CCCCn2cc(COc3ccc(/C=N/Nc4ccnc5cc(Cl)ccc45)cc3)nn2)c2ccc(F)cc21` registered an IC50 of 134 nM.

In the case of `Cc1ccc2c(c1)C(O)C(=O)N2CCCn1cc(COc2ccc(CNNc3ccnc4cc(Cl)ccc34)cc2)nn1` (configuration not stated), the IC50 was determined as 509 nM.

As to `O=Cc1ccc(OCc2cn(CCN3C(=O)C(=O)c4ccccc43)nn2)cc1`, the IC50 was over 10000 nM.

In the case of `O=C1C(=O)N(CCn2cc(COc3ccc(/C=N/Nc4ccnc5cc(Cl)ccc45)cc3)nn2)c2ccccc21`, half-maximal inhibition (IC50) was put at 118 nM.

With `O=Cc1ccc(OCc2cn(CCCN3C(=O)C(=O)c4ccccc43)nn2)cc1`, the IC50 was over 10000 nM.

In turn, `Cc1ccc2c(c1)C(O)C(=O)N2CCn1cc(COc2ccc(CNNc3ccnc4cc(Cl)ccc34)cc2)nn1` (configuration not stated) displayed an IC50 of 320 nM.

`Cc1ccc2c(c1)C(O)C(=O)N2CCCCn1cc(COc2ccc(CNNc3ccnc4cc(Cl)ccc34)cc2)nn1` (configuration not stated) showed an IC50 of 326 nM.

`O=C1C(=O)N(CCn2cc(COc3ccc(/C=N/Nc4ccnc5cc(Cl)ccc45)cc3)nn2)c2ccc(Cl)cc21` yielded an IC50 of 263 nM.

`Cc1ccc2c(c1)C(=O)C(=O)N2CCn1cc(COc2ccc(/C=N/Nc3ccnc4cc(Cl)ccc34)cc2)nn1` came in with an IC50 of 185 nM.

Turning to `O=Cc1ccc(OCc2cn(CCN3C(=O)C(=O)c4cc(Cl)ccc43)nn2)cc1`, the IC50 was over 10000 nM.

`O=Cc1ccc(OCc2cn(CCCN3C(=O)C(=O)c4cc(F)ccc43)nn2)cc1` returned an IC50 of over 10000 nM.

In turn, `Cc1ccc2c(c1)C(=O)C(=O)N2CCCCn1cc(COc2ccc(/C=N/Nc3ccnc4cc(Cl)ccc34)cc2)nn1` came in with an IC50 of 204 nM.

Compound `Cc1ccc2c(c1)C(=O)C(=O)N2CCCn1cc(COc2ccc(/C=N/Nc3ccnc4cc(Cl)ccc34)cc2)nn1` gave an IC50 of 163 nM.

`C[C@@H]1CC[C@H]2[C@@H](C)C(=O)O[C@@H]3O[C@@]4(C)CC[C@@H]1[C@]32OO4` [ARTEMISININ] returned an IC50 of 7 nM.

With `O=C1C(O)c2cc(F)ccc2N1CCn1cc(COc2ccc(CNNc3ccnc4cc(Cl)ccc34)cc2)nn1` (configuration not stated), the IC50 was 112 nM.

In the case of `O=C1C(=O)N(CCCCn2cc(COc3ccc(/C=N/Nc4ccnc5cc(Cl)ccc45)cc3)nn2)c2ccc(Cl)cc21`, it took 141 nM to reach half-maximal inhibition (IC50).

The compound `O=C1C(=O)N(CCCn2cc(COc3ccc(/C=N/Nc4ccnc5cc(Cl)ccc45)cc3)nn2)c2ccc(F)cc21` came in with a concentration for half-maximal inhibition (IC50) of 288 nM.

`O=C1C(O)c2cc(Cl)ccc2N1CCn1cc(COc2ccc(CNNc3ccnc4cc(Cl)ccc34)cc2)nn1` (configuration not stated) displayed an IC50 of 182 nM.

In turn, `O=C1C(O)c2ccccc2N1CCCn1cc(COc2ccc(CNNc3ccnc4cc(Cl)ccc34)cc2)nn1` (configuration not stated) displayed an IC50 of 339 nM.

Take `O=C1C(=O)N(CCCn2cc(COc3ccc(/C=N/Nc4ccnc5cc(Cl)ccc45)cc3)nn2)c2ccc(Cl)cc21`: the IC50 is 346 nM.

As to `O=Cc1ccc(OCc2cn(CCCCN3C(=O)C(=O)c4cc(Cl)ccc43)nn2)cc1`, the IC50 was over 10000 nM.

For `Cc1ccc2c(c1)C(=O)C(=O)N2CCCCn1cc(COc2ccc(C=O)cc2)nn1`, 6420 nM corresponded to half-maximal inhibition (IC50).

As for `O=C1C(O)c2ccccc2N1CCCCn1cc(COc2ccc(CNNc3ccnc4cc(Cl)ccc34)cc2)nn1` (configuration not stated), 69 nM corresponded to half-maximal inhibition (IC50).

Compound `O=C1C(O)c2cc(Cl)ccc2N1CCCCn1cc(COc2ccc(CNNc3ccnc4cc(Cl)ccc34)cc2)nn1` (configuration not stated) gave an IC50 of 168 nM.

With `O=C1C(O)c2ccccc2N1CCn1cc(COc2ccc(CNNc3ccnc4cc(Cl)ccc34)cc2)nn1` (configuration not stated), the IC50 amounted to 128 nM.

Compound `O=C1C(O)c2cc(F)ccc2N1CCCn1cc(COc2ccc(CNNc3ccnc4cc(Cl)ccc34)cc2)nn1` (configuration not stated) gave an IC50 of 206 nM.

Regarding `O=C1C(=O)N(CCCn2cc(COc3ccc(/C=N/Nc4ccnc5cc(Cl)ccc45)cc3)nn2)c2ccccc21`, the midpoint of inhibition, the IC50, lay at 165 nM.

On to `O=Cc1ccc(OCc2cn(CCCCN3C(=O)C(=O)c4cc(F)ccc43)nn2)cc1`, for which the IC50 is over 10000 nM.

On to `Cc1ccc2c(c1)C(=O)C(=O)N2CCCn1cc(COc2ccc(C=O)cc2)nn1`, for which the IC50 was over 10000 nM.

`Cc1ccc2c(c1)C(=O)C(=O)N2CCn1cc(COc2ccc(C=O)cc2)nn1` gave an IC50 of over 10000 nM.

`O=Cc1ccc(OCc2cn(CCCCN3C(=O)C(=O)c4ccccc43)nn2)cc1` came in with an IC50 of over 10000 nM.

In turn, `O=C1C(O)c2cc(F)ccc2N1CCCCn1cc(COc2ccc(CNNc3ccnc4cc(Cl)ccc34)cc2)nn1` (configuration not stated) gave an IC50 of 164 nM.

`O=C1C(O)c2cc(Cl)ccc2N1CCCn1cc(COc2ccc(CNNc3ccnc4cc(Cl)ccc34)cc2)nn1` (configuration not stated) came in with an IC50 of 350 nM.

Compound `O=Cc1ccc(OCc2cn(CCN3C(=O)C(=O)c4cc(F)ccc43)nn2)cc1` had an IC50 of over 10000 nM.

In turn, `O=C1C(=O)N(CCn2cc(COc3ccc(/C=N/Nc4ccnc5cc(Cl)ccc45)cc3)nn2)c2ccc(F)cc21` yielded a half-maximal inhibitory concentration (IC50) of 190 nM.

The record behind these values is ChEMBL document CHEMBL3112435, “1H-1,2,3-Triazole-tethered isatin-7-chloroquinoline and 3-hydroxy-indole-7-chloroquinoline conjugates: synthesis and antimalarial evaluation” (Bioorg Med Chem Lett, 2014).
